# Measured values taken from patent publication US20230295162A1 (EÖTVÖS LORÁND TUDOMÁNYEGYETEM, priority 2020, published 2023).
# Where two headings read alike, the source gives them in different places.
# Legend:
# Panc-1 human cell line = test: Cytotoxicity on Panc-1, xCELLigence SP, IC50 after 24 h, 48 h, 72 h and 96 h (Example 22)
# [1] = test system: PANC-1 (human pancreatic carcinoma) cells; test: Impedance-based viability assay (xCELLigence SP), long treatment; format: cell-based; settings: 72 h, read-out: cytotoxicity expressed in IC50, PANC-1
# From the text: (Gibco®/Invitrogen Corporation, New York, NY, USA).
# Data obtained from each experiment represent mathematical averages.
# [2] = test system: SCC-25 (tongue, squamous cell carcinoma) cells; test: Cell viability assay, CellTiter-Glo (Example 21); format: cell-based, human; settings: 72 h treatment
# Procedure, shortened: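 SCC-25 tongue squamous cell carcinoma cells were seeded at 1000 cells/well in flat-bottomed white 96 well plates, treated with compound, and viability was then determined with the CellTiter-Glo luminescent assay (Promega) following the manufacturer's instructions. Luminescence was read on a BioTek Synergy 2 Multi-Mode Reader.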
# [3] = test system: Capan-1 (pancreas, adenocarcinoma) cells; test: Cell viability assay, CellTiter-Glo (Example 21); format: cell-based, human; settings: 72 h treatment
# Procedure, shortened: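 Capan-1 cells were seeded at 1000 cells/well in flat-bottomed white 96 well plates (BRANDplates®), with density optimized for cell size and growth rate. Following compound treatment, viability was measured with the CellTiter-Glo® luminescent assay (Promega) per the manufacturer's instructions, reading luminescence on a BioTek Synergy 2 Multi-Mode Reader.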
# [4] = test system: EBC-1 (lung, squamous cell carcinoma) cells; test: Cell viability assay, CellTiter-Glo (Example 21); format: cell-based, human; settings: 72 h treatment
# Procedure, shortened: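 EBC-1 lung squamous cell carcinoma cells were seeded at 1000 cells/well in flat-bottomed white 96 well plates. After compound treatment, viability was measured with the CellTiter-Glo luminescent assay following the manufacturer's instructions, and luminescence was read on a BioTek Synergy 2 Multi-Mode microplate reader.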
# [5] = test system: PC-3 (prostate, adenocarcinoma) cells; test: Cell viability assay, CellTiter-Glo (Example 21); format: cell-based, human; settings: 72 h treatment
# Procedure, shortened: (§1)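 PC-3 prostate adenocarcinoma cells were seeded at 1000 cells/well in flat-bottomed white 96 well plates and treated with compounds. Viability was then determined with the CellTiter-Glo® luminescent assay (Promega) following the manufacturer's instructions, with luminescence read on a BioTek Synergy 2 Multi-Mode Reader.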
# [6] = test system: LNCaP (prostate, carcinoma) cells; test: Cell viability assay, CellTiter-Glo (Example 21); format: cell-based, human; settings: 72 h
# Procedure, shortened: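 LNCaP prostate carcinoma cell viability was assessed with the CellTiter-Glo® luminescent assay (Promega), following the manufacturer's instructions. Cells were seeded at 1500 cells/well into flat-bottomed white 96 well plates, treated, and then luminescence was read on a BioTek Synergy 2 Multi-Mode Reader. Dose-response curves were fitted in GraphPad Prism 8.4.2 by four-parameter variable-slope non-linear regression.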
# [7] = test system: MIA PaCa-2 (pancreas, carcinoma) cells; test: Cell viability assay, CellTiter-Glo (Example 21); format: cell-based, human; settings: 72 h treatment
# Procedure, shortened: as §1, with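 “MIA PaCa-2 pancreatic carcinoma” for “PC-3 prostate adenocarcinoma”, “plates (BRANDplates®, cat. no.: 781965)” for “plates”, “compound.” for “compounds.”, “luminescent cell viability” for “luminescent”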
# [8] = test system: DU 145 (prostate, carcinoma) cells; test: Cell viability assay, CellTiter-Glo (Example 21); format: cell-based, human; settings: 72 h
# Procedure, shortened: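 DU 145 cancer cell viability was assessed with the CellTiter-Glo® luminescent assay (Promega, Madison, WI, USA), following the manufacturer's instructions. Cells were seeded at 1000 cells/well in flat-bottomed white 96 well plates, and after treatment luminescence was read on a BioTek Synergy 2 Multi-Mode Reader.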
# [9] = test system: MDA-MB-231 (breast, adenocarcinoma) cells; test: Cell viability assay, CellTiter-Glo (Example 21); format: cell-based, human; settings: 72 h treatment
# Procedure, shortened: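 MDA-MB-231 breast adenocarcinoma cells were seeded at 1500 cells/well in flat-bottomed white 96 well plates (BRANDplates®, cat. no.: 781965). Following compound exposure, viability was assessed with the CellTiter-Glo® luminescent assay (Promega) following the manufacturer's protocol, and luminescence was read on a BioTek Synergy 2 Multi-Mode Reader.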
# [10] = test system: FaDu (pharynx, squamous cell carcinoma) cells; test: Cell viability assay, CellTiter-Glo (Example 21); format: cell-based, human; settings: 72 h treatment
# Procedure, shortened: (§2)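 Seeding density per line: Panc-1 750, FaDu 1000, Detroit 562 and MDA-MB-453 1500 cells/well. Viability after treatment read by CellTiter-Glo luminescence; dose-response curves fitted by four-parameter variable-slope non-linear regression.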
# [11] = test system: Detroit 562 (pharynx, carcinoma) cells; test: Cell viability assay, CellTiter-Glo (Example 21); format: cell-based, human; settings: 72 h treatment
# Procedure, shortened: as §2
# [12] = test system: MDA-MB-453 (breast, carcinoma) cells; test: Cell viability assay, CellTiter-Glo (Example 21); format: cell-based, human; settings: 72 h treatment
# Procedure, shortened: as §2
# [13] = test system: Panc-1 (pancreas, carcinoma) cells; test: Cell viability assay, CellTiter-Glo (Example 21); format: cell-based, human; settings: 72 h treatment
# Procedure, shortened: as §2
# [14] = test system: H2228 lung cancer cell line; test: High-throughput screening, CellTiter-Glo cell viability assay at 100 nM; format: cell-based, human; settings: Homo sapiens, NCI-H2228, HTS, compounds at 100 nM, 72 h, read-out: cytotoxicity expressed in IC50, H2228 (results of High throughput screening)
# [15] = test system: EBC-1 lung cancer cell line; test: as above; format: cell-based, human; settings: Homo sapiens, EBC-1, HTS, compounds at 100 nM, 72 h, read-out: cytotoxicity expressed in IC50, EBC-1 (results of High throughput screening)
structure (smiles),measurement,setting,value
"O=C1C2=C(CCN(Cc3ccccc3)C2)N2CCN=C2N1Cc1ccc(C(F)(F)F)cc1 [I/1, reference compound]",IC50,"Panc-1 human cell line; PANC-1, 72 h, read-out: IC50 (72 h) [nM]",274 ± 15.9 nM
same,IC50,"Panc-1 human cell line; PANC-1, 96 h, read-out: IC50 (96 h) [nM]",185 ± 44.4 nM
same,IC50,[1],48 nM
same,"SCC-25 (tongue, squamous cell carcinoma) cell viability (% of control)",[2]; 3.7 nM,108.5 ± 8.6 % of control
same,"SCC-25 (tongue, squamous cell carcinoma) cell viability (% of control)",[2]; 11.1 nM,105.5 ± 12.7 % of control
same,"SCC-25 (tongue, squamous cell carcinoma) cell viability (% of control)",[2]; 100 nM,76.7 ± 19.9 % of control
same,"SCC-25 (tongue, squamous cell carcinoma) cell viability (% of control)",[2]; 300 nM,37.6 ± 4.3 % of control
same,"Capan-1 (pancreas, adenocarcinoma) cell viability (% of control)",[3]; 3.7 nM,100.3 ± 4.0 % of control
same,"Capan-1 (pancreas, adenocarcinoma) cell viability (% of control)",[3]; 11.1 nM,99.2 ± 3.8 % of control
same,"Capan-1 (pancreas, adenocarcinoma) cell viability (% of control)",[3]; 100 nM,88.1 ± 4.2 % of control
same,"Capan-1 (pancreas, adenocarcinoma) cell viability (% of control)",[3]; 300 nM,36.8 ± 3.4 % of control
same,"EBC-1 (lung, squamous cell carcinoma) cell viability (% of control)",[4]; 3.7 nM,98.8 ± 5.8 % of control
same,"EBC-1 (lung, squamous cell carcinoma) cell viability (% of control)",[4]; 11.1 nM,110.1 ± 11.9 % of control
same,"EBC-1 (lung, squamous cell carcinoma) cell viability (% of control)",[4]; 100 nM,43.4 ± 6.8 % of control
same,"EBC-1 (lung, squamous cell carcinoma) cell viability (% of control)",[4]; 300 nM,24.2 ± 2.1 % of control
same,"PC-3 (prostate, adenocarcinoma) cell viability (% of control)",[5]; 3.7 nM,106.0 ± 2.8 % of control
same,"PC-3 (prostate, adenocarcinoma) cell viability (% of control)",[5]; 11.1 nM,102.4 ± 3.7 % of control
same,"PC-3 (prostate, adenocarcinoma) cell viability (% of control)",[5]; 100 nM,60.4 ± 5.2 % of control
same,"PC-3 (prostate, adenocarcinoma) cell viability (% of control)",[5]; 300 nM,33.3 ± 3.3 % of control
same,LNCaP cell viability,[6]; 3.7 nM,98.6 ± 5.7 % of control
same,LNCaP cell viability,[6]; 11.1 nM,101.4 ± 3.3 % of control
same,LNCaP cell viability,[6]; 100 nM,28.1 ± 1.7 % of control
same,LNCaP cell viability,[6]; 300 nM,15.2 ± 1.7 % of control
same,"MIA PaCa-2 (pancreas, carcinoma) cell viability (% of control)",[7]; 3.7 nM,105.7 ± 8.5 % of control
same,"MIA PaCa-2 (pancreas, carcinoma) cell viability (% of control)",[7]; 11.1 nM,108.5 ± 11.2 % of control
same,"MIA PaCa-2 (pancreas, carcinoma) cell viability (% of control)",[7]; 100 nM,43.4 ± 13.5 % of control
same,"MIA PaCa-2 (pancreas, carcinoma) cell viability (% of control)",[7]; 300 nM,17.3 ± 8.8 % of control
same,DU 145 cell viability,[8]; 3.7 nM,99.0 ± 4.6 % of control
same,DU 145 cell viability,[8]; 11.1 nM,101.3 ± 4.3 % of control
same,DU 145 cell viability,[8]; 100 nM,17.5 ± 4.2 % of control
same,DU 145 cell viability,[8]; 300 nM,8.1 ± 2.2 % of control
same,"MDA-MB-231 (breast, adenocarcinoma) cell viability (% of control)",[9]; 3.7 nM,101.0 ± 4.4 % of control
same,"MDA-MB-231 (breast, adenocarcinoma) cell viability (% of control)",[9]; 11.1 nM,97.9 ± 1.1 % of control
same,"MDA-MB-231 (breast, adenocarcinoma) cell viability (% of control)",[9]; 100 nM,87.9 ± 4.4 % of control
same,"MDA-MB-231 (breast, adenocarcinoma) cell viability (% of control)",[9]; 300 nM,56.8 ± 2.1 % of control
same,"FaDu (pharynx, squamous cell carcinoma) cell viability (% of control)",[10]; 3.7 nM,102.4 ± 7.4 % of control
same,"FaDu (pharynx, squamous cell carcinoma) cell viability (% of control)",[10]; 11.1 nM,98.8 ± 4.7 % of control
same,"FaDu (pharynx, squamous cell carcinoma) cell viability (% of control)",[10]; 100 nM,46.9 ± 5.6 % of control
same,"FaDu (pharynx, squamous cell carcinoma) cell viability (% of control)",[10]; 300 nM,25.6 ± 5.3 % of control
same,"Detroit 562 (pharynx, carcinoma) cell viability (% of control)",[11]; 3.7 nM,104.1 ± 4.8 % of control
same,"Detroit 562 (pharynx, carcinoma) cell viability (% of control)",[11]; 11.1 nM,104.0 ± 17.2 % of control
same,"Detroit 562 (pharynx, carcinoma) cell viability (% of control)",[11]; 100 nM,35.8 ± 14.4 % of control
same,"Detroit 562 (pharynx, carcinoma) cell viability (% of control)",[11]; 300 nM,32.0 ± 5.0 % of control
same,"MDA-MB-453 (breast, carcinoma) cell viability (% of control)",[12]; 3.7 nM,111.0 ± 7.3 % of control
same,"MDA-MB-453 (breast, carcinoma) cell viability (% of control)",[12]; 11.1 nM,110.8 ± 2.3 % of control
same,"MDA-MB-453 (breast, carcinoma) cell viability (% of control)",[12]; 100 nM,37.9 ± 1.3 % of control
same,"MDA-MB-453 (breast, carcinoma) cell viability (% of control)",[12]; 300 nM,32.5 ± 0.5 % of control
same,"Panc-1 (pancreas, carcinoma) cell viability (% of control)",[13]; 3.7 nM,105.8 ± 0.5 % of control
same,"Panc-1 (pancreas, carcinoma) cell viability (% of control)",[13]; 11.1 nM,104.6 ± 7.2 % of control
same,"Panc-1 (pancreas, carcinoma) cell viability (% of control)",[13]; 100 nM,81.8 ± 8.1 % of control
same,"Panc-1 (pancreas, carcinoma) cell viability (% of control)",[13]; 300 nM,56.9 ± 2.4 % of control
same,IC50,[14],> 100 nM
same,IC50,[15],< 100 nM
